Structures are written as SMILES. pEC50: −log10 of the molar value. Where only a bound is given, the exact number is not on record here.

A word on the pEC50: it is the negative decadic logarithm of the EC50, by convention in mol/L. One may read the CC50 as the concentration giving 50% cytotoxicity. Lower therefore signals harm at low concentration. What is called AUC(0-t) is the area under the concentration-time curve up to a stated or last time point. A word on the Cmax: it is the peak of the concentration-time curve. The Tmax is the time at which the peak concentration occurs.

The subject of data set [1] is influenza virus A/PR/8/34 (H1N1). As to the kind of experiment: organism not typed. The data set is classed as cell-based. Particulars: MDCK cells, A/PR/8/34 (H1N1), 5 days, CCK8; read-out: EC50.
The test system of another data set is MDCK cells. Briefly: in vitro. The class given is cell-based. As for the experimental part:
Method for cytotoxicity study: The cytotoxicity assay and antiviral activity assay of the compounds were performed in parallel, except for the absence of virus, other experimental conditions were consistent with the antiviral activity assay. After 5 days of culture, the cell viability was measured using the cell viability detection kit CCK8. Raw data were used for calculating compound cytotoxicity (CC50) (see Table 1 for results).

Details of data set [2]: species or system SD rats. To be noted: SD, rat, in vivo, po, 3 mg/kg. As for the experimental part: Intragastric administration: about 4 mg of Compound III-2 was accurately weighed out and added with appropriate amount of PEG400, followed by vortex to a clean solution. An appropriate volume of 30% Solutol HS-15 aqueous solution and saline were added, and followed by vortex to give a pharmaceutical preparation of a concentration of 0.3 mg·mL^−1, with PEG400: 30% Solutol HS-15: saline=2:2:6 (v/v/v). SD rats were given a single oral administration of 3.0 mg·kg^−1 of Compounds III-2, and the concentration of Compound II-6 in the plasma of S-D rats was determined before administration and 0.25 h, 0.5 h, 1 h, 2 h, 4 h, 8 h, 12 h and 24 h after administration.

The subject of data set [3] is influenza A virus (H1N1, A/WSN/33). As to the kind of experiment: Efficacy on mice, IAV mouse infection model. The data set is classed as in vivo, Female BALB/c mice. To be noted: 15 mpk orally twice a day. An excerpt: Female BALB/c mice were inoculated with influenza A virus (H1N1, A/WSN/33) by intranasal administration to establish an IAV mouse infection model. The vehicle, Compound III-2 (15 mpk) or oseltamivir phosphate (15 mpk) were orally administered twice a day. Animal weight and survival status were monitored daily during the test, and on the 5th day, some animals were killed to take lung tissue for virus titer detection, and the remaining mice were used for survival rate monitoring. The in vivo anti-influenza virus efficacy of the test compound was determined by virus titer in lung tissue, mouse body weight change and survival rate.

Take `O=C1c2c(O)c(=O)ccn2N([C@@H]2c3ccccc3SCc3c2ccc(F)c3F)[C@@H]2COCCN12` [Baloxavir acid, reference compound]: in data set [1], the pEC50 was 8.85. Further, the CC50 in the data set on MDCK cells was more than 1000 nM.

In data set [2], `COC(=O)OCOc1c2n(ccc1=O)N([C@@H]1c3ccccc3SCc3c1ccc(F)c3F)[C@@H]1COC3(CC3)CN1C2=O` [III-2] returned an AUC(0-t) of 1377 ng·h/mL, a Cmax of 253 ng/mL, an F of 47.2% and a T1/2 of 3.32 h. Further, the time to peak (Tmax) in data set [2] was 1.67 h. Besides, the Body weight change result in data set [3] (infected mice, during the experiment) is on record as “remained stable”. The molecule also yielded a Survival rate in data set [3] (infected mice, to the predetermined experimental end point) of 100%. In addition, the “Mean difference of virus titer compared with the solvent group” value in data set [3] (mice, 5th day after infection) was 3.92 Log 10 (number of plaques per gram of lung tissue). Moreover, in data set [3] (mice, 5th day after infection, 15 mg/kg), the “Influenza Virus Titer in lung tissue” value is 3.28 Log10 (plaques number/gram of. For the same molecule, in data set [3] (mice, 5th day after infection, listed as Compound III-2, 15 mg/kg), the “Influenza Virus Titer in lung tissue” value is recorded as 3.28 ± 0.2813 Log10 (plaques number/gram of.
